Test results published in PubChem BioAssay AID2060889 (Molecular Pharmacology Branch, DTP, NCI, 2025).

Test system: LG0567-F671-PDC complex spheroids viability
Assay: Anticancer human tumor LG0567-F671-PDC patient-derived lung adenocarcinoma cell line growth inhibition [RAS]
Conditions: for IC50: curve of first compound; for viability, T/C: stronger effect = lower value
In short: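 Agents were tested in combination matrices in half-log decrements from a top concentration at or near clinical Cmax (10 microM if undetermined). Targets were multi-cell spheroids of tumour lines plus HUVEC and MSC stromal cells.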

[1] = second compound 0.00316 µM, first compound 0.0316 µM
[2] = second compound 0.00316 µM, first compound 0.1 µM
[3] = second compound 0.00316 µM, first compound 0.316 µM
[4] = second compound 0.00316 µM, first compound 1 µM
[5] = second compound 0.00316 µM, first compound 3.16 µM
[6] = second compound 0.00316 µM, first compound 10 µM
[7] = second compound 0.01 µM, first compound 0.0316 µM
[8] = second compound 0.01 µM, first compound 0.1 µM
[9] = second compound 0.01 µM, first compound 0.316 µM
[10] = second compound 0.01 µM, first compound 1 µM
[11] = second compound 0.01 µM, first compound 3.16 µM
[12] = second compound 0.01 µM, first compound 10 µM
[13] = second compound 0.0316 µM, first compound 0.0316 µM
[14] = second compound 0.0316 µM, first compound 0.1 µM
[15] = second compound 0.0316 µM, first compound 0.316 µM
[16] = second compound 0.0316 µM, first compound 1 µM
[17] = second compound 0.0316 µM, first compound 3.16 µM
[18] = second compound 0.0316 µM, first compound 10 µM
[19] = second compound 0.1 µM, first compound 0.0316 µM
[20] = second compound 0.1 µM, first compound 0.1 µM
[21] = second compound 0.1 µM, first compound 0.316 µM
[22] = second compound 0.1 µM, first compound 1 µM
[23] = second compound 0.1 µM, first compound 3.16 µM
[24] = second compound 0.1 µM, first compound 10 µM
[25] = second compound 0.316 µM, first compound 0.0316 µM
[26] = second compound 0.316 µM, first compound 0.1 µM
[27] = second compound 0.316 µM, first compound 0.316 µM
[28] = second compound 0.316 µM, first compound 1 µM
[29] = second compound 0.316 µM, first compound 3.16 µM
[30] = second compound 0.316 µM, first compound 10 µM
[31] = second compound 1 µM, first compound 0.0316 µM
[32] = second compound 1 µM, first compound 0.1 µM
[33] = second compound 1 µM, first compound 0.316 µM
[34] = second compound 1 µM, first compound 1 µM
[35] = second compound 1 µM, first compound 3.16 µM
[36] = second compound 1 µM, first compound 10 µM
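Also: spheroids exposed to compound for seven days before readout.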
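For IC50 in this document: luminescence signal used as a proxy for viable cells.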

SMILES: CC1(O)CCCC1n1c(=O)c(C(F)F)cc2cnc(NC3CCN(S(C)(=O)=O)CC3)nc21 (stereo unspecified) + C=CC(=O)N1CCN(c2nc(OCC3CCCN3C)nc3c(F)c(-c4nc(N)cc(C)c4C(F)(F)F)c(Cl)cc23)C(C)C1
- IC50 (second compound 0.00316 µM): < 31.6 nM
- IC50 (second compound 0.01 µM): < 31.6 nM
- IC50 (second compound 0.0316 µM): < 31.6 nM
- IC50 (second compound 0.1 µM): < 31.6 nM
- IC50 (second compound 0.316 µM): < 31.6 nM
- IC50 (second compound 1 µM): < 31.6 nM
- viability, T/C [1]: 20.1%
- viability, T/C [2]: 16.5%
- viability, T/C [3]: 20.5%
- viability, T/C [4]: 23.8%
- viability, T/C [5]: 20.7%
- viability, T/C [6]: 14%
- viability, T/C [7]: 16.5%
- viability, T/C [8]: 15%
- viability, T/C [9]: 16.2%
- viability, T/C [10]: 19.1%
- viability, T/C [11]: 20.6%
- viability, T/C [12]: 15.1%
- viability, T/C [13]: 13.8%
- viability, T/C [14]: 12.9%
- viability, T/C [15]: 17.8%
- viability, T/C [16]: 18.3%
- viability, T/C [17]: 17.6%
- viability, T/C [18]: 13.4%
- viability, T/C [19]: 12.7%
- viability, T/C [20]: 13.8%
- viability, T/C [21]: 15%
- viability, T/C [22]: 17.8%
- viability, T/C [23]: 17.4%
- viability, T/C [24]: 13.3%
- viability, T/C [25]: 14.5%
- viability, T/C [26]: 15%
- viability, T/C [27]: 16.6%
- viability, T/C [28]: 17.1%
- viability, T/C [29]: 15.8%
- viability, T/C [30]: 13.1%
- viability, T/C [31]: 16.2%
- viability, T/C [32]: 15.3%
- viability, T/C [33]: 17.7%
- viability, T/C [34]: 19.8%
- viability, T/C [35]: 19.6%
- viability, T/C [36]: 12.4%

SMILES: CCC(CC)c1cc(NC2CCC(N)C2)n2nccc2n1 (stereo unspecified) + C=CC(=O)N1CCN(c2nc(OCC3CCCN3C)nc3c(F)c(-c4nc(N)cc(C)c4C(F)(F)F)c(Cl)cc23)C(C)C1
- IC50 (second compound 0.00316 µM): < 31.6 nM
- IC50 (second compound 0.01 µM): < 31.6 nM
- IC50 (second compound 0.0316 µM): < 31.6 nM
- IC50 (second compound 0.1 µM): < 31.6 nM
- IC50 (second compound 0.316 µM): < 31.6 nM
- IC50 (second compound 1 µM): < 31.6 nM
- viability, T/C [1]: 18.7%
- viability, T/C [2]: 16.5%
- viability, T/C [3]: 17.8%
- viability, T/C [4]: 15.8%
- viability, T/C [5]: 3.58%
- viability, T/C [6]: 0.33%
- viability, T/C [7]: 12.8%
- viability, T/C [8]: 13.4%
- viability, T/C [9]: 15.6%
- viability, T/C [10]: 12.7%
- viability, T/C [11]: 3.96%
- viability, T/C [12]: 0.45%
- viability, T/C [13]: 11.5%
- viability, T/C [14]: 11.6%
- viability, T/C [15]: 12.2%
- viability, T/C [16]: 11.2%
- viability, T/C [17]: 3.67%
- viability, T/C [18]: 0.43%
- viability, T/C [19]: 11.6%
- viability, T/C [20]: 16.4%
- viability, T/C [21]: 12.2%
- viability, T/C [22]: 10.4%
- viability, T/C [23]: 3.67%
- viability, T/C [24]: 0.68%
- viability, T/C [25]: 11.4%
- viability, T/C [26]: 11.2%
- viability, T/C [27]: 12.8%
- viability, T/C [28]: 11.4%
- viability, T/C [29]: 4.66%
- viability, T/C [30]: 0.75%
- viability, T/C [31]: 14.2%
- viability, T/C [32]: 14.3%
- viability, T/C [33]: 14.3%
- viability, T/C [34]: 12.2%
- viability, T/C [35]: 4.35%
- viability, T/C [36]: 0.62%

SMILES: CCN1CCN(Cc2ccc(Nc3ncc(F)c(-c4cc(F)c5nc(C)n(C(C)C)c5c4)n3)nc2)CC1 + C=CC(=O)N1CCN(c2nc(OCC3CCCN3C)nc3c(F)c(-c4nc(N)cc(C)c4C(F)(F)F)c(Cl)cc23)C(C)C1
- IC50 (second compound 0.00316 µM): < 3.16 nM
- IC50 (second compound 0.01 µM): < 3.16 nM
- IC50 (second compound 0.0316 µM): < 3.16 nM
- IC50 (second compound 0.1 µM): < 3.16 nM
- IC50 (second compound 0.316 µM): < 3.16 nM
- IC50 (second compound 1 µM): < 3.16 nM
- viability, T/C (second compound 0.00316 µM, first compound 0.00316 µM): 16.6%
- viability, T/C (second compound 0.00316 µM, first compound 0.01 µM): 14.9%
- viability, T/C [1]: 13.7%
- viability, T/C [2]: 14.2%
- viability, T/C [3]: 16.6%
- viability, T/C [4]: 22%
- viability, T/C (second compound 0.01 µM, first compound 0.00316 µM): 13.5%
- viability, T/C (second compound 0.01 µM, first compound 0.01 µM): 14.1%
- viability, T/C [7]: 14.4%
- viability, T/C [8]: 11.8%
- viability, T/C [9]: 14.9%
- viability, T/C [10]: 20.2%
- viability, T/C (second compound 0.0316 µM, first compound 0.00316 µM): 14.8%
- viability, T/C (second compound 0.0316 µM, first compound 0.01 µM): 13.1%
- viability, T/C [13]: 11.7%
- viability, T/C [14]: 12.4%
- viability, T/C [15]: 14.3%
- viability, T/C [16]: 21.2%
- viability, T/C (second compound 0.1 µM, first compound 0.00316 µM): 11.7%
- viability, T/C (second compound 0.1 µM, first compound 0.01 µM): 11.5%
- viability, T/C [19]: 12.4%
- viability, T/C [20]: 11.5%
- viability, T/C [21]: 15%
- viability, T/C [22]: 18.1%
- viability, T/C (second compound 0.316 µM, first compound 0.00316 µM): 12.7%
- viability, T/C (second compound 0.316 µM, first compound 0.01 µM): 13.1%
- viability, T/C [25]: 11.9%
- viability, T/C [26]: 11.3%
- viability, T/C [27]: 13.8%
- viability, T/C [28]: 17.2%
- viability, T/C (second compound 1 µM, first compound 0.00316 µM): 13.4%
- viability, T/C (second compound 1 µM, first compound 0.01 µM): 14.9%
- viability, T/C [31]: 12.6%
- viability, T/C [32]: 13.7%
- viability, T/C [33]: 16.1%
- viability, T/C [34]: 20.9%
